Results from US9783537B2, “3-(4-ethylnylphenyl) pyridopyrimidinone compounds and process for preparation thereof useful as potential anticancer agents” (Council of Scientific & Industrial Research, priority 2013, dated 2017).
Where two headings read alike, the source gives them in different places.

Columns and labels:
[1] = tested on: A549/ATCC; assay: SRB 48 h growth assay, Non-small Cell Lung A549/ATCC; assay type: cell-based, human
[2] = tested on: SK-MEL-5; assay: SRB 48 h growth assay, Melanoma SK-MEL-5; assay type: cell-based, human; conditions: SK-MEL-5, Melanoma
[3] = tested on: NCI-H226; assay: SRB 48 h growth assay, Non-small Cell Lung NCI-H226; assay type: cell-based, human
[4] = tested on: HOP-92; assay: SRB 48 h growth assay, Non-small Cell Lung HOP-92; assay type: cell-based, human; conditions: HOP-92, Non-small Cell Lung
[5] = tested on: NCI-H522; assay: SRB 48 h growth assay, Non-small Cell Lung NCI-H522; assay type: cell-based, human
[6] = tested on: MDA-MB-231/ATCC; assay: SRB 48 h growth assay, Breast MDA-MB-231/ATCC; assay type: cell-based, human
[7] = tested on: seven ovarian cancer cell lines (IGROV1, OVCAR-3, OVCAR-4, OVCAR-5, OVCAR-8, NCI/ADR-RES and SK-OV-3); assay: in vitro anticancer activity, ovarian panel; assay type: cell-based; conditions: Homo sapiens, exposure at least 48 h, read-out: GI50, range over panel
[8] = tested on: OVCAR-3; assay: SRB 48 h growth assay, Ovarian OVCAR-3; assay type: cell-based, human; conditions: OVCAR-3, Ovarian
[9] = tested on: NCI/ADR-RES; assay: SRB 48 h growth assay, Ovarian NCI/ADR-RES; assay type: cell-based, human
[10] = tested on: SK-OV-3; assay: SRB 48 h growth assay, Ovarian SK-OV-3; assay type: cell-based, human; conditions: SK-OV-3, Ovarian
[11] = tested on: RPMI-8226; assay: SRB 48 h growth assay, Leukemia RPMI-8226; assay type: cell-based, human; conditions: RPMI-8226, Leukemia; for GI50: Homo sapiens
[12] = tested on: 786-0; assay: SRB 48 h growth assay, Renal 786-0; assay type: cell-based, human; conditions: 786-0, Renal; for GI50: Homo sapiens
[13] = tested on: UACC-257; assay: SRB 48 h growth assay, Melanoma UACC-257; assay type: cell-based, human; conditions: UACC-257, Melanoma
[14] = tested on: M14; assay: SRB 48 h growth assay, Melanoma M14; assay type: cell-based, human; conditions: for GI50: Homo sapiens
[15] = tested on: CCRF-CEM; assay: SRB 48 h growth assay, Leukemia CCRF-CEM; assay type: cell-based, human; conditions: Homo sapiens
[16] = tested on: seven colon cancer cell line (COLO 205, HCC-2998, HCT-116, HCT-15, HT29, KM12 and SW-620); assay: in vitro anticancer activity, colon panel; assay type: cell-based; conditions: Homo sapiens; seven colon cancer cell lines, exposure at least 48 h; read-out: GI50, range over panel
[17] = tested on: SNB-75; assay: SRB 48 h growth assay, CNS SNB-75; assay type: cell-based, human; conditions: SNB-75, CNS; for GI50: Homo sapiens
[18] = tested on: six CNS cancer cell line (SF-268, SF-295, SF-539, SNB-19, SNB-75 and U251); assay: in vitro anticancer activity, CNS panel; assay type: cell-based; conditions: Homo sapiens; six CNS cancer cell lines, exposure at least 48 h; read-out: GI50, range over panel
[19] = tested on: K-562; assay: SRB 48 h growth assay, Leukemia K-562; assay type: cell-based, human
[20] = tested on: UACC-62; assay: SRB 48 h growth assay, Melanoma UACC-62; assay type: cell-based, human; conditions: UACC-62, Melanoma
[21] = tested on: HCT-116; assay: SRB 48 h growth assay, Colon HCT-116; assay type: cell-based, human; conditions: HCT-116, Colon
[22] = tested on: PC-3; assay: SRB 48 h growth assay, Prostate PC-3; assay type: cell-based, human; conditions: PC-3, Prostate
[23] = tested on: OVCAR-8; assay: SRB 48 h growth assay, Ovarian OVCAR-8; assay type: cell-based, human; conditions: Homo sapiens, OVCAR-8, Ovarian
[24] = tested on: OVCAR-4; assay: SRB 48 h growth assay, Ovarian OVCAR-4; assay type: cell-based, human; conditions: OVCAR-4, Ovarian
[25] = in vitro anticancer activity, melanoma panel; assay type: cell-based; conditions: Homo sapiens; nine melanoma cell lines, exposure at least 48 h; read-out: GI50, range over panel
[26] = tested on: TK-10; assay: SRB 48 h growth assay, Renal TK-10; assay type: cell-based, human; conditions: TK-10, Renal; for GI50: Homo sapiens
[27] = Homo sapiens, read-out: Growth Inhibition GI50
[28] = Homo sapiens, read-out: Log10 GI50 (converted)
[29] = Homo sapiens, read-out: Log10 LC50 (converted)
[30] = read-out: Growth Inhibition GI50
[31] = read-out: Log10 GI50 (converted)

C#Cc1ccc(-n2c(/C=C/c3ccc4ccccc4n3)nc3ncccc3c2=O)cc1 [4t, (E)-3-(4-Ethynylphenyl)-2-(2-(quinolin-2-yl)vinyl)pyrido[2,3-d]pyrimidin-4(3H)-one]
Log10 TGI50 [1]: −5.74
GI50 [1, 27]: 350 nM
GI50 [1, 28]: 355 nM
CC50 [1, 29]: > 100000 nM
GI50 [2, 27]: 170 nM
GI50 [2, 28]: 178 nM
CC50 [2, 29]: 759 nM
Log10 TGI50 [2]: −6.43
Log10 TGI50 [3]: −6.15
GI50 [3, 27]: 250 nM
GI50 [3, 28]: 251 nM
LC50 [3, 29]: 5890 nM
Log10 TGI50 [4]: −5.01
GI50 [4, 27]: 180 nM
GI50 [4, 28]: 186 nM
CC50 [4, 29]: > 100000 nM
Log10 TGI50 [5]: −6.10
GI50 [5, 27]: 270 nM
GI50 [5, 28]: 269 nM
CC50 [5, 29]: 4900 nM
Log10 TGI50 [6]: −5.93
GI50 [6, 27]: 330 nM
GI50 [6, 28]: 331 nM
CC50 [6, 29]: > 100000 nM
GI50 [7]: 2410 to 32300 nM
GI50 [8, 27]: 300 nM
GI50 [8, 28]: 302 nM
CC50 [8, 29]: 4790 nM
Log10 TGI50 [8]: −6.06
Log10 TGI50 [9]: −5.75
GI50 [9, 27]: 380 nM
GI50 [9, 28]: 380 nM
CC50 [9, 29]: > 100000 nM
GI50 [10, 27]: 320 nM
GI50 [10, 28]: 324 nM
CC50 [10, 29]: > 100000 nM
Log10 TGI50 [10]: −6.03
GI50 [11, 30]: 260 nM
GI50 [11, 31]: 269 nM
Log10 TGI50 [11]: −5.99
Log10 TGI50 [12]: −5.88
GI50 [12, 30]: 380 nM
GI50 [12, 31]: 389 nM
GI50 [13, 27]: 430 nM
GI50 [13, 28]: 437 nM
CC50 [13, 29]: 8710 nM
Log10 TGI50 [13]: −5.66
Log10 TGI50 [14]: −6.18
GI50 [14, 30]: 260 nM
GI50 [14, 31]: 263 nM
CC50 ([15]; CCKF-CEM, read-out: Log10 LC50 (converted)): > 100000 nM
GI50 [15, 30]: 260 nM
GI50 [15, 31]: 263 nM
GI50 [16]: 3550 to 52800 nM
GI50 [17, 30]: 330 nM
GI50 [17, 31]: 339 nM
Log10 TGI50 [17]: −5.85
GI50 [18]: 940 to 5240 nM
GI50 ([19]; Homo sapiens, K562, K-562, Leukemia, read-out: Growth Inhibition GI50): 330 nM
GI50 ([19]; Homo sapiens, K562, K-562, Leukemia, read-out: Log10 GI50 (converted)): 331 nM
CC50 ([19]; Homo sapiens, K562, K-562, Leukemia, read-out: Log10 LC50 (converted)): > 100000 nM
Log10 TGI50 ([19]; K-562, Leukemia): >−4.00
GI50 [20, 27]: 390 nM
GI50 [20, 28]: 398 nM
CC50 [20, 29]: 9330 nM
Log10 TGI50 [20]: −5.67
Log10 TGI50 [21]: −5.92
GI50 [21, 27]: 340 nM
GI50 [21, 28]: 347 nM
CC50 [21, 29]: 3890 nM
GI50 [22, 27]: 340 nM
GI50 [22, 28]: 339 nM
CC50 [22, 29]: > 100000 nM
Log10 TGI50 [22]: −5.76
GI50 [23, 30]: 340 nM
GI50 [23, 31]: 347 nM
CC50 ([23]; read-out: Log10 LC50 (converted)): > 100000 nM
GI50 [24, 27]: 330 nM
GI50 [24, 28]: 339 nM
CC50 [24, 29]: > 100000 nM
Log10 TGI50 [24]: −5.46
GI50 [25]: 1600 to 6300 nM
GI50 [26, 30]: 430 nM
GI50 [26, 31]: 437 nM
Log10 TGI50 [26]: −5.82
